# In PubChem BioAssay (NCI):
# Several values for one entry are separate records, joined by “and”; a condition that tells them apart may be missing. Identical values can stand only once.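 Briefly, cells in 96-well plates were exposed to five compound concentrations for 48 h, and endpoints were estimated by linear interpolation. The concentration for 50% growth inhibition is given as GI50. TGI marks complete inhibition of growth.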
# Experiments:
# Assay in all cases: NCI-60 cell line screen, 48 h
# 786-0 renal = tested on: 786-0 renal
# HOP-92 NSCLC = tested on: HOP-92 NSCLC
# HS 578T breast = tested on: HS 578T breast
# K-562 leukemia = tested on: K-562 leukemia
# MDA-MB-435 = tested on: MDA-MB-435
# OVCAR-4 ovarian = tested on: OVCAR-4 ovarian
# SK-MEL-2 melanoma = tested on: SK-MEL-2 melanoma
# SNB-19 CNS = tested on: SNB-19 CNS
# SNB-75 CNS = tested on: SNB-75 CNS
# UACC-257 melanoma = tested on: UACC-257 melanoma
Structure (SMILES),GI50 (786-0 renal),TGI (786-0 renal),GI50 (HOP-92 NSCLC),TGI (HOP-92 NSCLC),GI50 (HS 578T breast),TGI (HS 578T breast),GI50 (K-562 leukemia) [µM],TGI (K-562 leukemia),GI50 (MDA-MB-435),TGI (MDA-MB-435),GI50 (OVCAR-4 ovarian),TGI (OVCAR-4 ovarian),GI50 (SK-MEL-2 melanoma),TGI (SK-MEL-2 melanoma),GI50 (SNB-19 CNS),TGI (SNB-19 CNS),GI50 (SNB-75 CNS),TGI (SNB-75 CNS) [µM],GI50 (UACC-257 melanoma),TGI (UACC-257 melanoma)
COC(=O)c1cc(O)c2c(c1C(=O)OC)C[C@H]1[C@@H]3CC=C4C[C@@H](O)CC[C@]4(C)[C@H]3CC[C@]21C,2.42 µM,6.7 µM,2.59 µM,8.2 µM,2.78 µM,19.5 µM,2.41,7.77 µM,3.01 µM,20.6 µM,3.59 µM,15.8 µM,2.79 µM,5.6 µM,4.1 µM,23.8 µM,9.75 µM,55.9,2.54 µM,7.5 µM
CCN(CC)CCCC(C)N=C(C1=C(C(=NC(C)CCCN(CC)CC)c2cccc(OC)c2)C(=O)NC1=O)c1cccc(OC)c1 (stereo unspecified),1.8 µM,7.86 µM,0.993 µM,3.63 µM,4.24 µM,14.5 µM,1.34,4.2 µM,0.871 µM,1.68 µM,1.18 µM,3.49 µM,–,–,3.71 µM,16.4 µM,1.65 µM,6.81,0.952 µM,1.75 µM
CC[N+]1(C)CCC(O)(c2ccc(OC)cc2)C(C(=O)c2ccc(OC)cc2)C1 (stereo unspecified),–,9.05 µM,–,6.79 µM,–,7.43 µM,–,> 22.4 µM,–,31.1 µM,–,51.2 µM,–,34.3 µM,–,47.7 µM,–,27.8,–,35.4 µM
Nc1ccn(C2OC(COC(=O)C34CC5CC(CC(C5)C3)C4)C(O)C2O)c(=O)n1 (stereo unspecified),–,> 100 µM,–,> 100 µM,–,> 100 µM,–,> 100 µM,–,> 100 µM,–,> 100 µM,–,> 100 µM,–,> 100 µM,–,> 100,–,> 100 µM
OCC(O)c1nc2ccc3[nH]ncc3c2c2c1CCCC2 (stereo unspecified),1.77 µM,> 50 µM,–,–,1.4 µM,4.26 µM,1.91,> 50 µM,1.42 µM,4.31 µM,2.49 µM,> 50 µM,1.18 µM,2.99 µM,1.58 µM,> 50 µM,0.849 µM,1.6,1.8 µM,> 50 µM
Cc1sc2c(c1C)C(c1ccc(Cl)cc1)=N[C@@H](CC(=O)OC(C)(C)C)c1nnc(C)n1-2,0.605 µM and 0.841 µM,19.9 µM and 18.9 µM,0.0319 µM and 0.0183 µM,0.39 µM and 0.29 µM,0.139 µM and 0.0567 µM,18.4 µM and 18.1 µM,–,37.5 µM and 15.7 µM,0.348 µM and 0.135 µM,20.3 µM and 17 µM,0.123 µM and 0.15 µM,17.2 µM and 16.1 µM,5.51 µM and 5.34 µM,21.8 µM and 22.5 µM,0.629 µM and 0.421 µM,> 47.2 µM and 18.9 µM,0.0325 µM and 0.025 µM,–,0.313 µM and 0.146 µM,19.5 µM and 17 µM
Cn1c2ccc(Br)cc2c2c3c(c4c5ccccc5[nH]c4c21)C(=O)N(O)C3=O,0.174 µM,0.421 µM,0.0893 µM,0.451 µM,0.291 µM,1.04 µM,0.168,–,0.18 µM,0.498 µM,0.244 µM,0.705 µM,0.226 µM,0.469 µM,0.0777 µM,0.696 µM,0.164 µM,0.425,–,–
Cc1cc(N2CCSCC2)nc(NC2CCCC(Nc3ccnc4cc(Cl)ccc34)C2)n1 (stereo unspecified),1.52 µM,2.92 µM,1.65 µM,3.45 µM,1.87 µM,4.64 µM,1.14,3.41 µM,1.68 µM,3.09 µM,1.61 µM,5.13 µM,–,–,3.26 µM,11.5 µM,1.28 µM,2.94,2.14 µM,4.13 µM
COc1ccc(OC)c2c1[nH]c(=O)c1c3ncccc3cn21,5.44 µM,> 100 µM,0.854 µM,6.26 µM,5.37 µM,> 100 µM,3.62,> 100 µM,3.85 µM,> 100 µM,3.56 µM,17.2 µM,7.17 µM,> 100 µM,5.6 µM,> 100 µM,4.39 µM,62,5.05 µM,> 100 µM
Cc1nc(N2CCC3(CC2)CO[C@@H](C)[C@H]3N)c(CO)nc1Sc1ccnc(N)c1Cl,12.8 µM,> 100 µM,0.184 µM,2.12 µM,11 µM,99.1 µM,0.305,> 100 µM,> 100 µM,> 100 µM,22.4 µM,> 100 µM,> 100 µM,> 100 µM,14.8 µM,> 100 µM,0.518 µM,> 100,> 90.4 µM,> 100 µM
CC(C)(C)CC(C)(C)NCc1cc(C(C)(C)C)cc(CNC(C)(C)CC(C)(C)C)c1O,3.85 µM,14.4 µM,0.548 µM,4.2 µM,3.22 µM,20.7 µM,2.2,9.45 µM,2.56 µM,10.9 µM,2.62 µM,10.9 µM,2.84 µM,6.6 µM,5.24 µM,17.8 µM,3.99 µM,15.1,2.21 µM,6.52 µM
COc1ccc2nc3cc([N+](=O)[O-])ccc3c(NCCCN(C)C)c2c1,0.174 µM,1.28 µM,0.149 µM,0.651 µM,0.372 µM,4.76 µM,0.0361,0.183 µM,0.247 µM,1 µM,0.0959 µM,0.539 µM,–,–,0.299 µM,2.61 µM,0.31 µM,1.53,1.71 µM,4.41 µM
Cc1ccc(S(=O)(=O)NNC(=O)c2cc(C)c(C)cc2N)cc1,–,> 100 µM,–,> 100 µM,–,> 100 µM,–,> 100 µM,–,> 100 µM,–,> 100 µM,–,–,–,> 100 µM,–,> 100,–,> 100 µM
C=C(Nc1ccc([N+](=O)[O-])cc1[N+](=O)[O-])c1c/c(=N\NC(N)=S)c2ccccc2o1,–,> 100 µM,–,> 100 µM,–,> 100 µM,–,–,–,> 100 µM,–,> 100 µM,–,> 100 µM,–,> 100 µM,–,> 100,–,> 100 µM
COc1cccc(NC(=O)c2sc3nc4c(cc3c2N)C(=O)CCC4)c1,0.366 µM,> 100 µM,0.0482 µM,26.8 µM,0.0816 µM,> 100 µM,0.0513,> 100 µM,0.0221 µM,0.0548 µM,–,–,0.0611 µM,> 100 µM,1.72 µM,> 100 µM,0.0579 µM,12.7,–,–
